This note sets out measurements from ChEMBL document CHEMBL1146050, “Depeptidization efforts on P3-P2' alpha-ketoamide inhibitors of HCV NS3-4A serine protease: effect on HCV replicon activity” (Bioorg Med Chem Lett, 2006).

A word on the IC90: it is the concentration needed for an effect of 90%.

In one assay the target is NS3 (Hepatitis C virus, UniProt A3EZJ3). As to the kind of experiment: Inhibitory activity against HCV NS3 protease. On the set-up: species or system Hepacivirus hominis. Conditions: read-out: Ki app.
In a further assay the test system is Hepatitis C virus. As to the kind of experiment: Inhibitory activity against HCV replicon. It is filed as functional, Hepacivirus hominis. In general terms: In antiviral work, replicon cells carry a viral genome segment that copies itself.

The structures appear in SMILES notation. Numbered stars: 1 amine (or outer) side, 2 acyl side, 3 side chain; on linkers, the order of the positions; unused ones are H or OH. Square brackets hold non-standard residues; d marks the D form. Peptide text beside a SMILES is read from it. * marks the point of attachment. NMeAla(cPr) = CN[C@@H](CC1CC1)C(=O)O; Isobutyloxycarbonyl = CC(C)COC(=O)*; X1 = O=C(C(=O)[*:2])C(CC1CC1)N[*:1]; Ala(cPr) = N[C@@H](CC1CC1)C(=O)O; Chg = N[C@H](C(=O)O)C1CCCCC1; Phg = N[C@H](C(=O)O)c1ccccc1 Bounds are passed on as bounds.

Chain of NS3 (A3EZJ3 whole entry): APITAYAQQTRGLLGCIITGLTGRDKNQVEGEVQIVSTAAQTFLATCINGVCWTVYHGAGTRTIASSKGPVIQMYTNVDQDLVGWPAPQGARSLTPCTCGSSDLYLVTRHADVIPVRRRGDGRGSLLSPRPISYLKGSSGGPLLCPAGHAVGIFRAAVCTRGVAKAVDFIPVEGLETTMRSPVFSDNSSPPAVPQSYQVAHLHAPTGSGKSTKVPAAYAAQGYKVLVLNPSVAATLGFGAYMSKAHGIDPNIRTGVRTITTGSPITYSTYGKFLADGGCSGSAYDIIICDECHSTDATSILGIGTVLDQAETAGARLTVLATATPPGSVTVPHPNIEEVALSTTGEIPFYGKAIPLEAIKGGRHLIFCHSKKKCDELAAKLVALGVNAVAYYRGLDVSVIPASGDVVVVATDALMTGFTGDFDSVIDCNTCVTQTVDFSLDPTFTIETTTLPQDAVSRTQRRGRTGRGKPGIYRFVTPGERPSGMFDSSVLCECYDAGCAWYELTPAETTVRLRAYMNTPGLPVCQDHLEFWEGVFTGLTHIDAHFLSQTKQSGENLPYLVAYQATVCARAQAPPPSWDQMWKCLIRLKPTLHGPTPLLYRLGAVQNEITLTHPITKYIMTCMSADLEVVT

For `CC(C)COC(=O)N[C@@H](C1CCCCC1)[C@@H](O)CC(=O)N[C@@H](CC1CC1)C(=O)NC(CC1CC1)C(=O)C(=O)NCC(=O)N[C@H](C(=O)O)c1ccccc1` (stereo partly specified), at NS3, the Ki was 42000 nM. Moreover, the IC90 with Hepatitis C virus was over 5 µM.

`CC(C)COC(=O)N[C@@H](C1CCCCC1)[C@@H](O)CN(CC1CC1)C(=O)NC(CC1CC1)C(=O)C(=O)NCC(=O)N[C@H](C(=O)O)c1ccccc1` (stereo partly specified): at NS3, the Ki stood at 10000 nM. Moreover, the IC90 in the assay with Hepatitis C virus was over 5 µM.

On to `CC(C)COC(=O)N[C@H](C(=O)NN(CC1CC1)C(=O)NC(CC1CC1)C(=O)C(=O)NCC(=O)N[C@H](C(=O)O)c1ccccc1)C1CCCCC1` (stereo partly specified), for which the Ki on NS3 was 230 nM. In the assay on Hepatitis C virus, the IC90 was over 5 µM.

For the compound `CC(C)COC(=O)N[C@H](C(=O)CN(CC1CC1)C(=O)NC(CC1CC1)C(=O)C(=O)NCC(=O)N[C@H](C(=O)O)c1ccccc1)C1CCCCC1` (stereo partly specified), the Ki on NS3 came to 2100 nM. The compound further displayed an IC90 in the assay with Hepatitis C virus of over 5 µM.

Turning to `CC(C)COC(=O)N[C@H](C(=O)N[C@@H](CC1CC1)C(=O)NC(CC1CC1)C(=O)C(=O)NCC(=O)N[C@H](C(=O)N(C)C)c1ccccc1)C1CCCCC1` (stereo partly specified) (Isobutyloxycarbonyl-[Chg][Ala(cPr)][X1]G[Phg]-NMe2), at NS3, the Ki was found to be 50 nM. The compound also gave an IC90 in the assay with Hepatitis C virus of over 5 µM.

In the case of `CC(C)COC(=O)N[C@H](C(=O)N[C@@H](CC1CC1)C(=O)NC(CC1CC1)C(=O)C(=O)NCC(=O)N[C@H](C(=O)O)c1ccccc1)C1CCCCC1` (stereo partly specified) (Isobutyloxycarbonyl-[Chg][Ala(cPr)][X1]G[Phg]-OH), the Ki on NS3 was determined as 15 nM. In addition, in the assay with Hepatitis C virus, the concentration for an effect of 90% (IC90) was over 5 µM.

Take `CC(C)COC(=O)N[C@H](C(=O)N(C)[C@@H](CC1CC1)C(=O)NC(CC1CC1)C(=O)C(=O)NCC(=O)N[C@H](C(=O)N(C)C)c1ccccc1)C1CCCCC1` (stereo partly specified) (Isobutyloxycarbonyl-[Chg][NMeAla(cPr)][X1]G[Phg]-NMe2): the Ki at NS3 amounted to 60 nM. It took 0.95 µM to reach the 90% level with Hepatitis C virus (IC90).

Consider `CC(C)COC(=O)N[C@H](C(=O)N(C)[C@@H](CC1CC1)C(=O)NC(CC1CC1)C(=O)C(=O)NCC(=O)N[C@H](C(=O)O)c1ccccc1)C1CCCCC1` (stereo partly specified) (Isobutyloxycarbonyl-[Chg][NMeAla(cPr)][X1]G[Phg]-OH), for which the Ki on NS3 stood at 120 nM. The compound further had an IC90 in the assay on Hepatitis C virus of over 5 µM.
